Target: T1, hM5 (Homo sapiens, UniProt P08912)
T1 construct: expressed in transfected cells
T1 sequence (P08912 1-532): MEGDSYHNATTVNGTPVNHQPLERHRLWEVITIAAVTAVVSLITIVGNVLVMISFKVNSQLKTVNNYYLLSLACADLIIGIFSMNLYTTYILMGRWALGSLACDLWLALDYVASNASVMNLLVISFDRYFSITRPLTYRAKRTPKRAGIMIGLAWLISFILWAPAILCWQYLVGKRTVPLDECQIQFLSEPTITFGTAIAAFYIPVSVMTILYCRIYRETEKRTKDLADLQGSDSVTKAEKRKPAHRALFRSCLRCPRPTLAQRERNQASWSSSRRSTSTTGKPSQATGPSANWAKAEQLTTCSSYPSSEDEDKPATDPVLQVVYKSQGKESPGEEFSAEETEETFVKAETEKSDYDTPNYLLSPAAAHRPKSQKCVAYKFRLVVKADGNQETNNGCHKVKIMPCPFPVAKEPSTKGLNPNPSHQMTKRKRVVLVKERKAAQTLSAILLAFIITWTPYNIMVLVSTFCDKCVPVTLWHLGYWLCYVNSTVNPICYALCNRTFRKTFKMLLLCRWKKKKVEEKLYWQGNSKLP
Experiment: Calcium mobilization concentration-response (IC50 vs EC80 acetylcholine), CHO hM5
Assay type: cell-based
Details: CELL LINE hM5; calcium mobilization, EC80 acetylcholine addition; read-out: IC50
Protocol: Initial, single point (10 μM) compound characterization was performed in stable Chinese Hamster Ovary (CHO) cell lines constitutively expressing human M5 receptors. These were plated at 15,000 cells per 20 μL per well in Greiner 384-well black-walled, TC-treated, clear-bottomed plates (Fisher) in Ham's F12 medium supplemented with 10% FBS and 20 mM HEPES. Cells were incubated overnight at 37° C. under 5% CO2. The following day, medium was exchanged with assay buffer (Hank's Balanced Salt Solution supplemented with 20 mM HEPES and 2.5 mM Probenecid, pH 7.4) leaving 20 μL of assay buffer in each well. […] The cells were then incubated 50 minutes at 37° C. under 5% CO2. The assay buffer plus dye was then exchanged with fresh assay buffer leaving a volume of 20 μL in each well. Test compounds were diluted into assay buffer to a 2X (20 μM) concentration in 0.2% dimethylsulfoxide (DMSO) in columns 3-22 with matching DMSO concentration in columns 1, 2, 23, and […]; compounds were added to the assay for a final concentration of 10 μM and a final DMSO concentration of 0.1%.
Either an FDSS (Hamamatsu) or Panoptic (WaveFront Biosciences) kinetic imaging plate reader was used for assay execution and measurement of calcium flux. After establishing baseline fluorescence, test compounds (20 μL) were added to the cells using the reader's integrated pipettor and allowed to equilibrate for 140 seconds before addition of the […] concentration of acetylcholine (10 μL) along with vehicle in selected DMSO-only wells in the outer two columns . […] The raw fluorescence data from each well was normalized to the corresponding initial fluorescence reading (static ratio). The maximum fluorescence value following each addition was determined and the minimum value within that same timeframe was subtracted for each well then normalized to the average of the ECffiax maximum-minimum response, providing a % AChmax value for each addition for each well. The single point values represent mean values determined within the ECsu addition timeframe obtained from at least three independent determinations performed in triplicate or greater (error bars represent +/−SEM) unless otherwise specified.
CHO cells stably expressing hM1, hM2/Gqi5, hM3, hM4/Gqi5, hM5, rM1/Gqi5, rM3, rM4/Gqi5, or rM5 were plated in the manner described above. […] FDSS protocols were carried out as described above; the static ratio was calculated and the minimum response subtracted from the maximum response within the timeframe of each addition. This max-min response was then normalized to the maximum acetylcholine response. Calculation of IC50 was performed using the percent maximum acetylcholine response for the EC80 addition through the Vortex and Studies modules of the Dotmatics data management software. Results are stored in the Dotrnatics database and an audit trail of any changes to their analysis is generated. Data shown represent mean values obtained from at least three independent determinations performed in triplicate or greater (error bars represent±SEM) unless otherwise specified.

SMILES | IC50 [nM]
O=S(=O)(c1cnc2n1CCC2)N1CCC(c2cn3ncnc3cc2F)CC1 [Compound 233, 6-(1-((6,7-dihydro-5H-pyrrolo[1,2-a]imidazol-3-yl)sulfonyl)piperidin-4-yl)-7-fluoro-[1,2,4]triazolo[1,5-a]pyridine] | > 10000
Cc1cc2ncnn2cc1C1CCN(S(=O)(=O)c2c(Cl)nc3sccn23)CC1 [Compound 324, 6-chloro-5-((4-(7-methyl-[1,2,4]triazolo[1,5-a]pyridin-6-yl)piperidin-1-yl)sulfonyl)imidazo[2,1-b]thiazole] | 13
O=S(=O)(c1ccc2c(c1)CCO2)N1CCC(c2cc3ccncc3s2)CC1 [Compound 13, 2-(1-((2,3-dihydrobenzofuran-5-yl)sulfonyl)piperidin-4-yl)thieno[2,3-c]pyridine] | > 10000
O=S(=O)(c1ccc2c(c1)CCO2)N1CCC(c2nccs2)CC1 [Compound 98, 2-(1-((2,3-dihydrobenzofuran-5-yl)sulfonyl)piperidin-4-yl)thiazole] | > 10000
Cc1nn(C)cc1S(=O)(=O)N1CCC(c2cc3cc[nH]c3cn2)CC1 [Compound 95, 5-(1-((1,3-dimethyl-1H-pyrazol-4-yl)sulfonyl)piperidin-4-yl)-1H-pyrrolo[2,3-c]pyridine] | > 10000
Cc1sc(C#N)nc1C1=CCN(S(=O)(=O)c2ccc3c(c2)CCO3)CC1 [Compound 205, 4-(1-((2,3-dihydrobenzofuran-5-yl)sulfonyl)-1,2,3,6-tetrahydropyridin-4-yl)-5-methylthiazole-2-carbonitrile] | > 10000
O=S(=O)(c1ccc2ncsc2c1)N1CCC(c2cn3ncnc3cc2F)CC1 [Compound 107, 6-((4-(7-fluoro-[1,2,4]triazolo[1,5-a]pyridin-6-yl)piperidin-1-yl)sulfonyl)benzo[d]thiazole] | > 10000
Cc1c(S(=O)(=O)N2CCC(c3ccc4ncnn4c3)CC2)cnn1C [Compound 288, 6(1-((1,5-dimethyl-1H-pyrazol-4-yl)sulfonyl)piperidin-4-yl)-[1,2,4]triazolo[1,5-a]pyridine] | 358
Cc1ncc(S(=O)(=O)N2CC=C(c3cn4nc(C(F)F)nc4cc3C)CC2)s1 [Compound 317, 5-((4-(2-(Difluoromethyl)-7-methyl-[1,2,4]triazolo[1,5-a]pyridin-6-yl)-3,6-dihydropyridin-1(2H)-yl)sulfonyl)-2methylthiazole] | 6900
Cc1cc2ncnn2cc1C1CCN(S(=O)(=O)c2cnn(C(F)F)c2C)CC1 [Compound 151, 6-(1-((1-(difluoromethyl)-5-methyl-1H-pyrazol-4-yl)sulfonyl)piperidin-4-yl)-7-methyl-[1,2,4]triazolo[1,5-a]pyridine] | 62

Same assay, conditions: CELL LINE hM5; vs EC80 acetylcholine; read-out: IC50

SMILES | IC50 [nM]
[2H]C1([2H])CC(c2cn3ncnc3cc2F)CC([2H])([2H])N1S(=O)(=O)c1cnn(C)c1C(F)F [Compound 476, 6-(1-((5-(difluoromethyl)-1-methyl-1H-pyrazol-4-yl)sulfonyl)piperidin-4-yl-2,2,6,6-d4)-7-fluoro-[1,2,4]triazolo[1,5-a]pyridine] | 92
CCc1cc2ncnn2cc1C1CCN(S(=O)(=O)c2cnc(Cl)s2)CC1 [Compound 513, 2-chloro-5-((4-(7-ethyl-[1,2,4]triazolo[1,5-a]pyridin-6-yl)piperidin-1-yl)sulfonyl)thiazole] | 4770
[2H]C1([2H])CC(c2cn3ncnc3cc2C)CC([2H])([2H])N1S(=O)(=O)c1cnn(C)c1C#N [Compound 547, 1-methyl-4-((4-(7-methyl-[1,2,4]triazolo[1,5-a]pyridin-6-yl)piperidin-1-yl-2,2,6,6-d4)sulfonyl)-1H-pyrazole-5-carbonitrile] | 10
Cc1cc(N(C)C)ncc1C1CCN(S(=O)(=O)c2cnn(C)c2C)CC1 [Compound 550, 5-(1-((1,5-dimethyl-1H-pyrazol-4-yl)sulfonyl)piperidin-4-yl)-N,N,4-trimethylpyridin-2-amine] | 9
Cc1ncc(S(=O)(=O)N2CCC(c3cn4ncnc4cc3C(F)F)CC2)o1 [Compound 497, 5-((4-(7-(difluoromethyl)-[1,2,4]triazolo[1,5-a]pyridin-6-yl)piperidin-1-yl)sulfonyl)-2-methyloxazole] | 141
